Data on six compounds can be found in ChEMBL document CHEMBL6134918, “Novel Indole and Pyrrolopyridine Derivatives as GPR17 Modulators for Treating Multiple Sclerosis” (ACS Med Chem Lett, 2025).

This assay deals with Uracil nucleotide/cysteinyl leukotriene receptor (Homo sapiens, UniProt Q13304). Kind of assay: Inhibition of full length GPR17 (unknown origin) stably expressed in human 1321N1 cells incubated for 15 mins by cAMP based HTRF assay. In kind it is functional, cell-based. Background: Time-resolved FRET reads energy transfer from a long-lived donor to a nearby acceptor.
Uracil nucleotide/cysteinyl leukotriene receptor, sequence (Q13304 whole entry): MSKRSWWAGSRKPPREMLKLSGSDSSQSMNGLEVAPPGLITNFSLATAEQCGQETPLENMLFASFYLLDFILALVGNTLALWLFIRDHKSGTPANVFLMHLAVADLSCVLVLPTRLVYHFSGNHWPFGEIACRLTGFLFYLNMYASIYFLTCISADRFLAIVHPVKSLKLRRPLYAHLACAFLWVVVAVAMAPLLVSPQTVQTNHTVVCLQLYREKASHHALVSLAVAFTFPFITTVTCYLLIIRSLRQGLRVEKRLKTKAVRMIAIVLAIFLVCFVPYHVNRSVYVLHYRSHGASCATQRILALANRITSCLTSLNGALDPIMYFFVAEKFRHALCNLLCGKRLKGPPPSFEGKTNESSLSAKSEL
The term IC50 denotes the concentration at which inhibition is half-maximal. For `O=S(=O)(Nc1ncc(C(F)(F)F)s1)c1c[nH]c2cc(Cl)ccc12`, the IC50 is less than 100 nM.
For `Cc1onc(NS(=O)(=O)c2c[nH]c3cc(Cl)c(Cl)cc23)c1Cl` the value was less than 100 nM; for `CCCn1ncc(NS(=O)(=O)c2c[nH]c3cc(Cl)ccc23)c1C#N`, less than 100 nM.
`N#Cc1c(NS(=O)(=O)c2c[nH]c3cc(Cl)ccc23)cnn1CCC(F)(F)F` showed an IC50 of less than 100 nM.
As for `N#Cc1c(NS(=O)(=O)c2c[nH]c3cc(Cl)ccc23)cnn1CCCl`, the IC50 was less than 100 nM.
For `Cc1snc(NS(=O)(=O)c2c[nH]c3cc(Cl)ccc23)c1Cl` the value was less than 100 nM.
